Assay results as given in patent US12257290B2, “PIC1 inhibition of myeloperoxidase oxidative activity in an animal model” (priority 2018, dated 2025).
Ends that are not written are not given here.

How the values were obtained:
[1] = target: T1, MPO (Homo sapiens, UniProt P05164); experiment: MPO-mediated oxidation of TMB (FIG. 16); assay type: biochemical; details: FIG. 16, dose-response, increasing MPO concentrations
T1 sequence (P05164 49-745): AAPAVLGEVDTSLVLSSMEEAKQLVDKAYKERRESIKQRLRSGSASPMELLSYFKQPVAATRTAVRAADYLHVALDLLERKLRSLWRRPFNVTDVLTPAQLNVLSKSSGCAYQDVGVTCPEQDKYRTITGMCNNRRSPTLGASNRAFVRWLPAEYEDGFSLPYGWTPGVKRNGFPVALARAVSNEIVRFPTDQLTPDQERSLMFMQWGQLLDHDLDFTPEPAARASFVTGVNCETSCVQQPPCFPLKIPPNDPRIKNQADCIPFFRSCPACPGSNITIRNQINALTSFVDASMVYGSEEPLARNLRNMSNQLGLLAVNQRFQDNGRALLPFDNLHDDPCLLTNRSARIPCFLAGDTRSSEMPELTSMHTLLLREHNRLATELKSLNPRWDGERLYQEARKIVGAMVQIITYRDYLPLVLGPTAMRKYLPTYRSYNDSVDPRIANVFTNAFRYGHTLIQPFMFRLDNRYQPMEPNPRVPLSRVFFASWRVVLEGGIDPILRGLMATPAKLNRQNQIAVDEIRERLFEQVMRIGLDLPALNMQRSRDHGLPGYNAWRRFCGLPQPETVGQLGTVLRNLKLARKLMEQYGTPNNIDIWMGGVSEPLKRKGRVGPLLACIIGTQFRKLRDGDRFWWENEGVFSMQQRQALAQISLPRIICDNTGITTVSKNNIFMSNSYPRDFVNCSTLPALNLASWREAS
Excerpt: FIG. 16 is a graph showing PIC1 dose-response inhibition of MPO-mediated oxidation of TMB for increasing concentrations of MPO.
PA-dPEG24 can inhibit the peroxidase effect of MPO in clinical CF sputum samples ex vivo as well as for purified MPO in vitro. […] PA-dPEG24 can inhibit NET formation in vitro, such as NET formation stimulated by any of phorbol 12-myristate 13-acetate (PMA), purified MPO, and immune complex-activated human sera.

[2] = test system: complement activation in normal human serum (NHS); experiment: C1-antiC1q immune complex-initiated complement activation in normal human serum (C5a, iC3b, SC5b-9 ELISA); assay type: biochemical
Method: Immune complex activation of NHS was performed as follows. NHS was stimulated with three different types of immune complexes (IC) to induce complement activation. Heat-aggregated IgG was generated by incubating intravenous immune globulin at 50 mg/ml at 63° C. for 30 min [26]. Ovalbumin-antiovalbumin immune complexes were made by incubating 0.01 ml anti-ovalbumin antibody with an equal volume of ovalbumin, at 0.25 mg/nil, at 37° C. for 30 minutes and then storing at 4° C. overnight. C1 immune complexes were formed by incubating 0.02 ml anti-C1q goat sera with 5 μl of C1, at 200 μg/ml, at 30° C. for 30 minutes and then placing in an ice water bath. For C5a and C5b-9 assays, activation of NHS was performed by pre-incubating 5% NHS with titrating concentrations of PA-dPEG24 in 0.3 ml of GVBS^++ buffer for 30 minutes at room temperature. Then […] of either heat-aggregated IVIg, or ovalbumin IC, or 5 μI of C1-antiC1q IC was added to the mix for 30 min. at 37° C. This reaction was stopped with the addition of an equal volume of GVBS^−−. For iC3b detection, 1% NHS was used and the rest of the protocol remained the same.
ELISA was performed as follows. Samples were assayed using C5a, iC3b, and SC5b-9 ELISAs. A C5a ELISA kit (R&D Systems) was used per the manufacturer's instructions. ELISAs for iC3b and SC5b-9 were performed as previously described. In iC3b ELISA, a goat anti-human C3 antibody (Complement Technology, Tyler TX) was used in for capture, a mouse anti-human iC3b antibody (Quidel, San Diego CA) for probing, and a goat anti-mouse HRP antibody for detection. In SC5b-9 ELISA, a rabbit anti-human SC5b-9 antibody (Complement Technology) was used for capture, a mouse anti-human SC5b-9 monoclonal antibody (Quidel) for probing, and a chicken anti-mouse HRP antibody for detection. Colorimetric detection was performed with TMB, stopped with H2SO4 and read on a BioTek Synergy HT plate reader at 450 nm.
Due to the importance of anti-C1q antibodies in a subset of patients with SLE, immune complexes with human C1 and anti-C1q antibodies (goat) were generated. […]

IALILEPICCQERAA-dPEG24 (cysteine pairing not given here) [PA-dPEG24, 15-amino acid PEGylated peptide, 24 PEG moieties at the C-terminus]
MPO-mediated oxidation of TMB [1]: inhibits MPO-mediated oxidation | C1-antiC1q generation of iC3b ([2]; 2 mM PA-dPEG24, P<0.02): inhibited by 2 mM PA-dPEG24 (P<0.02) to a level similar to NHS baseline | PA-dPEG24 concentration inhibiting C1-antiC1q generation of SC5b-9 ([2]; P<0.03): ≥ 0.13 mM | C1-antiC1q generation of C5a in NHS ([2]; at each concentration, P<0.03): dose-dependently inhibited
